Laboratory results: ChEMBL document CHEMBL3885861, “Open TG-GATES”

Species: Rattus norvegicus
Assay: Open TG-GATES - Regimen: Single
Assay type: toxicity, organism-based, Sprague-Dawley
Set-up: regimen Single, gender Male, age 6 weeks
Settings: in vivo, po, route gavage; for APTT / Bas / Eos / Fbg / Hb / Ht / Lym / MCHC / MCV / Mono / PT / Plat / RBC / Ret / WBC: tissue Blood; for KIDNEY_L / KIDNEY_R / KIDNEY_TOTAL: tissue Kidney; for LIVER: tissue Liver; for ALP / ALT / AST / BUN / CRE / DBIL / GLC / K / LDH / Na / PL / RALB / TBIL / TC / TG / TP / gamma-GTP: tissue Plasma
[1] = 0 mg/kg, 3 h, dose level Control
[2] = 0 mg/kg, 6 h, dose level Control
[3] = 0 mg/kg, 9 h, dose level Control
[4] = 0 mg/kg, 24 h, dose level Control
[5] = 600 mg/kg, 24 h, dose level Low

## O=C1NC(=O)C(c2ccccc2)(c2ccccc2)N1 [PHENYTOIN]
[1]
  TERMINAL_BW: 209.3 g
  APTT: 16.8 s
  Bas: 0.4%
  Eos: 0.8%
  Fbg: 267 mg/dL
  Hb: 13.4 g/dL
  Ht: 40.2%
  Lym: 78.6%
  MCHC: 33.3%
  MCV: 62.2 fL
  Mono: 3%
  PT: 13.9 s
  Plat: 116.9 x10_4/uL
  RBC: 646.8 x10_4/ul
  Ret: 8.3%
  WBC: 81.2 x10_2/uL
  KIDNEY_L: 0.9 g
  KIDNEY_R: 0.9 g
  KIDNEY_TOTAL: 1.9 g
  LIVER: 9.6 g
  ALP: 1709.4 IU/L
  ALT: 37 IU/L
  AST: 75.6 IU/L
  BUN: 9.8 mg/dL
  CRE: 0.2 mg/dL
  DBIL: 0.018 mg/dL
  GLC: 177.4 mg/dL
  K: 4.1 meq/L
  LDH: 127.8 IU/L
  Na: 141.6 meq/L
  PL: 145.2 mg/dL
  RALB: 2.5 g/dL
  TBIL: 0.056 mg/dL
  TC: 75.8 mg/dL
  TG: 61.4 mg/dL
  TP: 5.4 g/dL
  gamma-GTP: 1.2 IU/L
[2]
  TERMINAL_BW: 207.9 g
  APTT: 16.8 s
  Bas: 0.6%
  Eos: 0.8%
  Fbg: 297.4 mg/dL
  Hb: 13.3 g/dL
  Ht: 39.4%
  Lym: 79.4%
  MCHC: 33.6%
  MCV: 61.5 fL
  Mono: 3%
  PT: 14.1 s
  Plat: 121.6 x10_4/uL
  RBC: 641.4 x10_4/ul
  Ret: 7.5%
  WBC: 97.9 x10_2/uL
  KIDNEY_L: 0.9 g
  KIDNEY_R: 0.9 g
  KIDNEY_TOTAL: 1.8 g
  LIVER: 8.5 g
  ALP: 1520.6 IU/L
  ALT: 34.4 IU/L
  AST: 67.6 IU/L
  BUN: 8.6 mg/dL
  CRE: 0.2 mg/dL
  DBIL: 0.018 mg/dL
  GLC: 184.2 mg/dL
  K: 4.3 meq/L
  LDH: 96.2 IU/L
  Na: 142.2 meq/L
  PL: 139.6 mg/dL
  RALB: 2.5 g/dL
  TBIL: 0.05 mg/dL
  TC: 77.8 mg/dL
  TG: 44.2 mg/dL
  TP: 5.4 g/dL
  gamma-GTP: 1.4 IU/L
[3]
  TERMINAL_BW: 205.9 g
  APTT: 15.5 s
  Bas: 0.6%
  Eos: 0.8%
  Fbg: 295.6 mg/dL
  Hb: 13.5 g/dL
  Ht: 40.5%
  Lym: 76.2%
  MCHC: 33.4%
  MCV: 61.1 fL
  Mono: 2.6%
  PT: 13.8 s
  Plat: 126 x10_4/uL
  RBC: 663.4 x10_4/ul
  Ret: 7.6%
  WBC: 79.7 x10_2/uL
  KIDNEY_L: 0.9 g
  KIDNEY_R: 0.9 g
  KIDNEY_TOTAL: 1.8 g
  LIVER: 8.7 g
  ALP: 1437.2 IU/L
  ALT: 29.8 IU/L
  AST: 68.8 IU/L
  BUN: 9.8 mg/dL
  CRE: 0.2 mg/dL
  DBIL: 0.014 mg/dL
  GLC: 177.4 mg/dL
  K: 4.2 meq/L
  LDH: 93.4 IU/L
  Na: 142.4 meq/L
  PL: 131.6 mg/dL
  RALB: 2.5 g/dL
  TBIL: 0.052 mg/dL
  TC: 72.4 mg/dL
  TG: 40 mg/dL
  TP: 5.5 g/dL
  gamma-GTP: 1.6 IU/L
[4]
  TERMINAL_BW: 224.3 g
  APTT: 17.7 s
  Bas: 0.4%
  Eos: 1%
  Fbg: 273.4 mg/dL
  Hb: 13.2 g/dL
  Ht: 39.1%
  Lym: 79.8%
  MCHC: 33.7%
  MCV: 62.6 fL
  Mono: 2.2%
  PT: 14.4 s
  Plat: 121.9 x10_4/uL
  RBC: 625.6 x10_4/ul
  Ret: 7.8%
  WBC: 108.2 x10_2/uL
  KIDNEY_L: 1 g
  KIDNEY_R: 1 g
  KIDNEY_TOTAL: 2.1 g
  LIVER: 10.6 g
  ALP: 1864.2 IU/L
  ALT: 42.4 IU/L
  AST: 75.2 IU/L
  BUN: 14.8 mg/dL
  CRE: 0.2 mg/dL
  DBIL: 0.024 mg/dL
  GLC: 187.6 mg/dL
  K: 4 meq/L
  LDH: 95.6 IU/L
  Na: 142.6 meq/L
  PL: 152 mg/dL
  RALB: 2.6 g/dL
  TBIL: 0.042 mg/dL
  TC: 74.8 mg/dL
  TG: 100.2 mg/dL
  TP: 5.6 g/dL
  gamma-GTP: 1 IU/L
600 mg/kg, 3 h, dose level Low
  TERMINAL_BW: 210.6 g
  APTT: 16.8 s
  Bas: 0.2%
  Eos: 0.8%
  Fbg: 264.8 mg/dL
  Hb: 13.1 g/dL
  Ht: 39.2%
  Lym: 79%
  MCHC: 33.5%
  MCV: 62.3 fL
  Mono: 2.4%
  PT: 14 s
  Plat: 116 x10_4/uL
  RBC: 629.4 x10_4/ul
  Ret: 8%
  KIDNEY_L: 0.9 g
  KIDNEY_R: 1 g
  KIDNEY_TOTAL: 1.9 g
  LIVER: 8.8 g
  ALP: 1512 IU/L
  ALT: 36.4 IU/L
  AST: 78.6 IU/L
  BUN: 10 mg/dL
  CRE: 0.2 mg/dL
  DBIL: 0.012 mg/dL
  GLC: 186.6 mg/dL
  K: 3.9 meq/L
  LDH: 113.2 IU/L
  Na: 141.8 meq/L
  PL: 143.4 mg/dL
  RALB: 2.5 g/dL
  TBIL: 0.052 mg/dL
  TC: 82 mg/dL
  TG: 36.2 mg/dL
  TP: 5.4 g/dL
  gamma-GTP: 1.2 IU/L
600 mg/kg, 6 h, dose level Low
  TERMINAL_BW: 208.2 g
  APTT: 18.6 s
  Bas: 0.4%
  Eos: 0.8%
  Fbg: 274.8 mg/dL
  Hb: 13 g/dL
  Ht: 38.2%
  Lym: 77.6%
  MCHC: 33.9%
  MCV: 61 fL
  Mono: 2.6%
  PT: 14.3 s
  RBC: 626.4 x10_4/ul
  Ret: 7.9%
  WBC: 89.4 x10_2/uL
  KIDNEY_L: 1 g
  KIDNEY_R: 0.9 g
  KIDNEY_TOTAL: 1.9 g
  LIVER: 8.7 g
  ALP: 1510.8 IU/L
  ALT: 30.8 IU/L
  AST: 71.8 IU/L
  BUN: 8.6 mg/dL
  CRE: 0.2 mg/dL
  DBIL: 0.01 mg/dL
  GLC: 181.8 mg/dL
  K: 4.2 meq/L
  LDH: 89 IU/L
  Na: 142.8 meq/L
  PL: 135.6 mg/dL
  RALB: 2.5 g/dL
  TBIL: 0.052 mg/dL
  TC: 74.8 mg/dL
  TG: 26 mg/dL
  TP: 5.3 g/dL
  gamma-GTP: 1.4 IU/L
600 mg/kg, 9 h, dose level Low
  TERMINAL_BW: 206.7 g
  APTT: 16 s
  Bas: 0.2%
  Eos: 1%
  Fbg: 288.8 mg/dL
  Hb: 13.3 g/dL
  Ht: 39.5%
  Lym: 73.6%
  MCHC: 33.7%
  MCV: 60.6 fL
  Mono: 2.4%
  PT: 14.3 s
  Plat: 109.6 x10_4/uL
  RBC: 653.4 x10_4/ul
  Ret: 7.3%
  WBC: 74.9 x10_2/uL
  KIDNEY_L: 0.9 g
  KIDNEY_R: 0.9 g
  KIDNEY_TOTAL: 1.8 g
  LIVER: 7.7 g
  ALP: 1491.4 IU/L
  ALT: 29.6 IU/L
  AST: 72.4 IU/L
  BUN: 8.2 mg/dL
  CRE: 0.2 mg/dL
  DBIL: 0.016 mg/dL
  GLC: 186 mg/dL
  K: 4 meq/L
  LDH: 80.8 IU/L
  Na: 141.2 meq/L
  PL: 125.8 mg/dL
  RALB: 2.5 g/dL
  TBIL: 0.064 mg/dL
  TC: 69.6 mg/dL
  TG: 18 mg/dL
  TP: 5.4 g/dL
  gamma-GTP: 1 IU/L
[5]
  TERMINAL_BW: 217.3 g
  APTT: 16.9 s
  Bas: 0.2%
  Eos: 1.2%
  Fbg: 286 mg/dL
  Hb: 13.7 g/dL
  Ht: 40.1%
  Lym: 78.4%
  MCHC: 34.2%
  MCV: 62.9 fL
  Mono: 2.4%
  PT: 14.5 s
  Plat: 120.7 x10_4/uL
  RBC: 637.4 x10_4/ul
  Ret: 7.3%
  WBC: 101.8 x10_2/uL
  KIDNEY_L: 1 g
  KIDNEY_R: 1 g
  KIDNEY_TOTAL: 1.9 g
  LIVER: 9.7 g
  ALP: 1621 IU/L
  ALT: 34.6 IU/L
  AST: 67.6 IU/L
  BUN: 14 mg/dL
  CRE: 0.2 mg/dL
  DBIL: 0.022 mg/dL
  GLC: 177.6 mg/dL
  K: 4.4 meq/L
  LDH: 123.6 IU/L
  Na: 141.6 meq/L
  PL: 143 mg/dL
  RALB: 2.6 g/dL
  TBIL: 0.04 mg/dL
  TC: 75.4 mg/dL
  TG: 95.8 mg/dL
  TP: 5.6 g/dL
